Laboratory results from ChEMBL document CHEMBL1146831, “Binding of a homologous series of anthraquinones to DNA” (Bioorg Med Chem Lett, 2004).

Key:
Nucleic Acid [1] = assay: Binding constant towards AT-rich calf thymus DNA hairpin; type: nucleic-acid assay; details: Bos taurus
Nucleic Acid [2] = assay: Binding constant towards GC-rich calf thymus DNA hairpin; type: nucleic-acid assay; details: Bos taurus

| Compound | K (Nucleic Acid [1]) [M⁻¹] | K (Nucleic Acid [2]) [M⁻¹] |
| --- | --- | --- |
| COCCOCCCNCCC(=O)Nc1ccc2c(c1)C(=O)c1ccc(NC(=O)CCNCCCOCCOC)cc1C2=O | 550000 | 220000 |
| COCCOCCOCCCNCCC(=O)Nc1ccc2c(c1)C(=O)c1ccc(NC(=O)CCNCCCOCCOCCOC)cc1C2=O | 250000 | 110000 |
| COCCOCCOCCOCCCNCCC(=O)Nc1ccc2c(c1)C(=O)c1ccc(NC(=O)CCNCCCOCCOCCOCCOC)cc1C2=O | 190000 | 90000 |
| COCCCNCCC(=O)Nc1ccc2c(c1)C(=O)c1ccc(NC(=O)CCNCCCOC)cc1C2=O | 760000 | 310000 |
